Data taken from patent publication US9944618B2, “Inhibiting neurotransmitter reuptake” (Mayo Foundation for Medical Education and Research, priority 2013, dated 2018).

Target: human norepinephrine transporter (Homo sapiens (Human), UniProt P23975)
Assay: Human NET (norepinephrine transporter) uptake assay
Type: cell-based
Settings: for potency at hNET relative to the other enantiomer or epimer: comparison in words, used to assign configuration
Method: This protocol was designed to measure inhibition of uptake by the human norepinephrine transporter. […] The Assay Buffer (AB) was 1×HBSS and 0.02 M HEPES.
The HEK293F cells were transfected with the human norepinephrine transporter and frozen in 1 mL aliquots at about 1E+07 cells/mL. On the day of the experiment, the cells were removed from −80° C. or liquid nitrogen and thawed in a room temperature water bath. The cells were dilute to about 1-2E+06 with Freestyle medium. A 1 mL sample (1:2 dilution) was prepared, and the cells were counted. The cells were spun at 1100 rpm for 5 minutes, and the medium was aspirated off. The cells were resuspend in medium at 1.5E+06 cells/mL for about 60,000 cells per well. 40 μL of cells were dispensed per well in the Biocoat plates. The plates were spun at 1100 rpm for 1 minute to improve homogeneity of the cell layer and were incubated at 37° C. for a minimum of 3 hours.
12 μL of test compound (10 mM) in DMSO was added to the wells, and nomifensine was used as a control. […] The neurotransmitter transporter dye was prepared in AB prior to use.
Due to the proprietary nature of the dye formulation, all dye concentrations were expressed as a percentage of the vendor-recommended dye reconstitution. Thus, the above calculations were valid when both [dye] and Km were expressed in the same units (%). Compounds were tested in triplicate (n=3).

Chain of human norepinephrine transporter (P23975 whole entry): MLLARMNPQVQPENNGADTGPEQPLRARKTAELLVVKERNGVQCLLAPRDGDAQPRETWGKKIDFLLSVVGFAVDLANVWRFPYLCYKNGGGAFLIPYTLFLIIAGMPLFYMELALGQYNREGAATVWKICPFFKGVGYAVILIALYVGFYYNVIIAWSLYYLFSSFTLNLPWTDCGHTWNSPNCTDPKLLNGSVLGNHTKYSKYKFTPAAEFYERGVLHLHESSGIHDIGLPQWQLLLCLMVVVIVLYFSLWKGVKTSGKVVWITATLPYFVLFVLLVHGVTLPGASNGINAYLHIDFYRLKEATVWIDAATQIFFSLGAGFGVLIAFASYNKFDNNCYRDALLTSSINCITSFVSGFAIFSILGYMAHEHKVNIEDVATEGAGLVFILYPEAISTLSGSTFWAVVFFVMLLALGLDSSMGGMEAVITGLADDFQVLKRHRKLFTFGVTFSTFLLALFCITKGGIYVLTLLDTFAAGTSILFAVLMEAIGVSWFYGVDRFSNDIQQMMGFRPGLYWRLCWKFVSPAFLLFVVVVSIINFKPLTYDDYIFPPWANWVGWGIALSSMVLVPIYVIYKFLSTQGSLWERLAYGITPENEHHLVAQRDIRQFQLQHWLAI

SMILES | potency at hNET relative to the other enantiomer or epimer | potency at hNET (stated in synthesis example) [nM]
CNCC(c1ccc2ccccc2c1)[C@@H](O)c1ccc(Cl)nc1 (stereo partly drawn) [compound 169] | lower potency | –
CNCC(Cc1ccccc1OC)c1ccc2ccccc2c1 (stereo not drawn) [compound 57] | more potent | –
CNC[C@H](c1ccc(Cl)c(Cl)c1)[C@@H](O)c1ccccc1-c1cccs1 [compound 100] | higher inhibitory activity | –
CNC[C@H](c1ccc(Cl)c(Cl)c1)[C@@H](O)c1cccnc1OC [compound 104] | higher inhibitory activity | –
CNC[C@@H](c1ccc2ccccc2c1)[C@H](O)c1cc(F)cc(F)c1 [compound 142] | less potent | –
CNC[C@H](c1ccc(Cl)c(Cl)c1)[C@@H](O)c1cccc(Br)c1 [compound 161] | more potent | –
CNC[C@@H](c1ccc2ccccc2c1)[C@H](O)c1ccccn1 [compound 99] | lower inhibitory activity | –
CNC[C@@H](c1ccc2ccccc2c1)[C@H](O)c1ccccc1F [compound 96] | less potent | –
CNCC(Cc1ccccc1CO)c1ccc2ccccc2c1 (stereo not drawn) [compound 2] | more potent | –
CNC[C@@H](c1ccc2ccccc2c1)[C@@H](O)c1cccnc1 [compound 103] | less potent | –
CNCC(c1ccc(Br)c(Cl)c1)[C@H](O)c1ccccc1 (stereo partly drawn) [compound 16] | more potent | –
CCc1cccc([C@@H](O)[C@H](CNC)c2ccc(Cl)c(Cl)c2)c1 [compound 159] | more potent | –
CNC[C@@H](c1ccc(Cl)c(Cl)c1)[C@H](O)c1cccc(NC(C)=O)c1 [compound 98] | less potent | –
O[C@@H](c1ccccc1)[C@@H](CNCC(F)(F)F)c1ccc2ccccc2c1 (single isomer, unassigned) [compound 130] | equipotent | –
CNC[C@@H](c1ccc(Cl)c(Cl)c1)[C@@H](O)c1cccc(OC)n1 [compound 157] | lower potency | –
CNCC(Cc1ccccc1CO)c1ccc2ccccc2c1 (stereo not drawn) [compound 90] | less potent | –
NC[C@@H](c1ccc2ccccc2c1)[C@@H](O)c1ccc(Cl)nc1 [compound 126] | lower potency | –
CNC[C@H](c1ccc(Cl)c(Cl)c1)[C@H](O)c1cccc(I)c1 [compound 151] | higher potency | –
CNCC(C[C@H](O)c1ccccc1)c1ccc2ccccc2c1 (stereo partly drawn) [compound 85] | more potent | –
CNC[C@H](c1ccc(Cl)c(Cl)c1)[C@@H](O)c1cccc(NS(=O)(=O)C(F)(F)F)c1 [compound 127] | higher inhibitory activity | –
NC[C@@H](Cc1ccccc1O)c1ccc2ccccc2c1 [compound 133] | more potent | –

SMILES | potency at hNET relative to the other enantiomer or epimer | potency at hNET (stated in synthesis example) [nM]
C[C@](CN)(Cc1cccnc1)c1ccc2ccccc2c1 [compound 42] | more potent | –
CNC[C@H](c1ccc(OC)c(C)c1)[C@H](O)c1cccnc1 [compound 55] | more potent | –
CNCC(Cc1ccccc1C)c1ccc2ccccc2c1 (stereo not drawn) [compound 39] | more potent | –
CNC[C@@H](c1ccc(Cl)c(Cl)c1)[C@@H](O)c1cccc([S+](C)[O-])c1 (single isomer, unassigned) [compound 116] | equipotent | –
CNC[C@@H](c1ccc(Cl)c(Cl)c1)[C@@H](O)c1cccc(SC)c1 [compound 154] | lower potency | –
NCC(c1ccc2ccccc2c1)C(O)c1ccc(F)cc1F (stereo not drawn) [compound 107] | higher potency | –
CNC[C@H](C[C@H](O)c1ccccc1)c1ccc2ccccc2c1 [compound 93] | less potent | –
CNC[C@@H](c1ccc(Cl)c(Cl)c1)[C@@H](O)c1ccccc1 [compound 114] | weak hNET potency | –
CNCC(CCc1ccccc1)[C@@H](O)c1ccccc1 (stereo partly drawn) [compound 147] | lower potency | –
CNC[C@H](c1ccc(Cl)c(Cl)c1)[C@H](O)c1cccc(OC)n1 [compound 167] | higher potency | –
CNC[C@H](c1ccc(Cl)c(Cl)c1)[C@H](O)c1cccc(N(C)C)c1 (single isomer, unassigned) [compound 168] | similar | –
CNC[C@H](c1ccc(Cl)c(Cl)c1)[C@H](O)c1cncc(OC)c1 [compound 166] | more potent | –
CNC[C@H](c1ccc(Cl)c(Cl)c1)[C@H](O)c1cccc(S(C)(=O)=O)c1 [compound 101] | higher potency | –
CNC[C@H](c1ccc2ccccc2c1)[C@H](O)c1ccc2c(c1)OCCO2 [compound 143] | higher potency | –
CNC[C@@H](c1ccc2ccccc2c1)[C@@H](O)c1ccccc1F [compound 78] | less potent | –
CNC[C@H](c1ccc2ccccc2c1)[C@@H](O)c1ccccc1F [compound 60] | more potent | –
CNC[C@H](c1ccc(Cl)c(Cl)c1)[C@H](O)c1cccc([N+](=O)[O-])c1 [compound 102] | more potent | –
NC[C@H](c1ccc2ccccc2c1)[C@@H](O)c1ccncc1Cl [compound 95] | higher inhibitory activity | –
CNCC(CCc1ccccc1)[C@H](O)c1ccccc1 (stereo partly drawn) [compound 66] | less potent | –
CNC[C@H](c1ccc2ccccc2c1)[C@H](O)c1cc(F)cc(F)c1 (single isomer, unassigned) [compound 37] | more potent | –
CNC[C@H](c1ccc(Cl)c(Cl)c1)[C@@H](O)c1cccc(NC(C)=O)c1 [compound 94] | more potent | –

SMILES | potency at hNET relative to the other enantiomer or epimer | potency at hNET (stated in synthesis example) [nM]
CNCC(CCc1ccccc1)[C@@H](O)c1ccccc1 (stereo partly drawn) [compound 27] | more potent | –
CNC[C@@H](c1ccc2ccccc2c1)[C@@H](O)c1cncc(OC)c1 [compound 122] | lower inhibitory activity | –
CNC[C@H](c1ccc2ccccc2c1)[C@@H](O)c1cc(F)cc(F)c1 [compound 141] | more potent | –
CNC[C@H](c1ccc(Cl)c(Cl)c1)[C@H](O)c1cccc(Br)c1 [compound 76] | more potent | –
CNC[C@H](c1ccc(Cl)c(Cl)c1)[C@@H](O)c1ccccc1I [compound 152] | higher potency | –
CNC[C@@H](Cc1ccc(C)s1)c1ccc2ccccc2c1 [compound 44] | higher potency | –
CNC[C@H](c1ccc(Cl)c(Cl)c1)[C@@H](O)c1cccc(SC)c1 [compound 163] | more potent | –
CNC[C@H](c1ccc(Cl)c(Cl)c1)[C@@H](O)c1ccccc1SC [compound 97] | more potent | –
CNC[C@H](c1ccc2ccccc2c1)[C@H](O)c1cncc(OC)c1 [compound 92] | more potent | –
CNC[C@@H](c1ccc(Cl)c(Cl)c1)[C@@H](O)c1cccc(Br)c1 [compound 162] | less potent | –
NC[C@@H](c1ccc2ccccc2c1)C(O)c1ccncc1Cl (stereo partly drawn) [compound 118] | lower potency | –
CCc1ccccc1[C@@H](O)[C@H](CNC)c1ccc(Cl)c(Cl)c1 [compound 158] | – | 6
CNC[C@@H](c1ccc(Cl)c(Cl)c1)[C@@H](O)c1cccc(SC)c1 [compound 120] | lower inhibitory activity | –
CNC[C@H](c1ccc(Br)c(Cl)c1)[C@@H](O)c1ccccc1 [compound 21] | more potent | –
CNC[C@@H](c1ccc2ccccc2c1)[C@@H](O)c1cccnc1 [compound 49] | more potent | –
CNC[C@@H](c1ccc(Cl)c(Cl)c1)[C@@H](O)c1cccnc1OC [compound 171] | less potent | –
CNC[C@@H](c1ccc(Cl)c(Cl)c1)[C@@H](O)c1cccc(NS(=O)(=O)C(F)(F)F)c1 [compound 121] | lower potency | –
CNC[C@H](c1ccc2ccccc2c1)[C@H](O)c1ccccc1C [compound 28] | more potent | –
CNC[C@H](c1ccc2ccccc2c1)[C@H](O)c1ccc(Cl)nc1 [compound 26] | higher inhibitory activity | –
CNC[C@H](c1ccc(Cl)c(Cl)c1)[C@@H](O)c1ccccc1 [compound 70] | more potent | –
CNCC(Cc1ccccc1O)c1ccc2ccccc2c1 (stereo not drawn) [compound 52] | more potent | –
